Data taken from ChEMBL document CHEMBL4613325, “Design of Development Candidate eFT226, a First in Class Inhibitor of Eukaryotic Initiation Factor 4A RNA Helicase” (J Med Chem, 2020).
The source made the active and inactive calls. The rule behind the calls is not given here.

Assays:
[1] = Volume of distribution at steady state in Sprague-Dawley rat at 1 mg, iv administered as single dose measured after 0.083 to 24 hrs by LC-MS analysis; format: ADME, organism-based; conditions: in vivo, read-out: Vdss
[2] = Clearance in iv dosed rat; format: ADME, organism-based; conditions: in vivo
[3] = Half life in Sprague-Dawley rat at 1 mg, iv administered as single dose measured after 0.083 to 24 hrs by LC-MS analysis; format: ADME, organism-based; conditions: in vivo
[4] = target: T1, Eukaryotic initiation factor 4A-I (Homo sapiens, UniProt P60842); test: Inhibition of eIF4A1 in human MDA-MB-231 cells assessed as inhibition of cellular-translation incubated for 4 hrs by specific tandem sequence motif repeat GGCGGC in 5'- UTR containing luciferase reporter gene assay; format: cell-based
[5] = target: T1, Eukaryotic initiation factor 4A-I; test: Inhibition of eIF4A1 in human MDA-MB-231 cells assessed as inhibition of cellular-translation incubated for 4 hrs by specific tandem sequence motif repeat CCGCCG in 5'- UTR containing luciferase reporter gene assay; format: cell-based
[6] = Apparent permeability from apical to basolateral side in human Caco2 cells at 10 uM by LC/MS/MS analysis
[7] = AUC in iv dosed rat; format: ADME, organism-based; conditions: in vivo
[8] = Toxicity in athymic nude ((NCr) nu/nu mouse xenografted with human MDA-MB-231 cells assessed as induction of body weight loss at 1 mg/kg, iv treated once weekly for 2 weeks relative to control; format: organism-based; conditions: in vivo, 336 h
[9] = Protein binding in monkey plasma; format: ADME, cell-free, Macaca mulatta; conditions: rhesus monkey, read-out: PPB (converted)
[10] = Inhibition of eIF4A1 F163L mutant in human HAP1 cells assessed as reduction in cell proliferation incubated for 72 hrs by CellTiter-Glo reagent based assay; conditions: HAP1, 72 h
[11] = target: Voltage-gated inwardly rectifying potassium channel KCNH2 (Homo sapiens, UniProt Q12809); test: Inhibition of human ERG by patch-clamp assay
[12] = target: T1, Eukaryotic initiation factor 4A-I; test: Inhibition of eIF4A1 in human MDA-MB-231 cells assessed as inhibition of cellular-translation incubated for 4 hrs by specific tandem sequence motif repeat AGAGAG in 5'- UTR containing luciferase reporter gene assay; format: cell-based
[13] = target: T1, Eukaryotic initiation factor 4A-I; test: Inhibition of eIF4A1 in human MDA-MB-231 cells assessed as inhibition of cellular-translation incubated for 4 hrs by specific tandem sequence motif repeat CAACAA in 5'- UTR containing luciferase reporter gene assay; format: cell-based
[14] = Volume of distribution at steady state in dog at 1 mg, iv administered as single dose measured after 0.083 to 24 hrs by LC-MS analysis; format: ADME, organism-based, Canis lupus familiaris; conditions: in vivo, read-out: Vdss
[15] = Protein binding in human plasma; format: ADME, cell-free; conditions: read-out: PPB (converted)
[16] = Volume of distribution at steady state in mouse at 1 mg, iv administered as single dose measured after 0.083 to 24 hrs by LC-MS analysis; format: ADME, organism-based; conditions: in vivo, read-out: Vdss
[17] = Protein binding in dog plasma; format: ADME, cell-free, Canis lupus familiaris; conditions: read-out: PPB (converted)
[18] = Clearance in Sprague-Dawley rat at 1 mg, iv administered as single dose measured after 0.083 to 24 hrs by LC-MS analysis; format: ADME, organism-based; conditions: in vivo
MDA-MB-231 [19] = test: Effect on GADPH protein expression in human MDA-MB-231 cells 10 to 100 nM incubated for 24 hrs by Western blot analysis; format: ADME, cell-based; conditions: mda-mb-231, 24 h
[20] = Volume of distribution at steady state in monkey at 1 mg, iv administered as single dose measured after 0.083 to 24 hrs by LC-MS analysis; format: ADME, organism-based, Macaca mulatta; conditions: rhesus monkey, in vivo, read-out: Vdss
[21] = Volume of distribution at steady state in iv dosed rat; format: ADME, organism-based; conditions: in vivo, read-out: Vdss
[22] = Protein binding in mouse plasma; format: ADME, cell-free; conditions: read-out: PPB (converted)
[23] = Clearance in dog at 1 mg, iv administered as single dose measured after 0.083 to 24 hrs by LC-MS analysis; format: ADME, organism-based, Canis lupus familiaris; conditions: in vivo
[24] = Half life in iv dosed rat; format: ADME, organism-based; conditions: in vivo
[25] = Protein binding in rat plasma; format: ADME, cell-free; conditions: read-out: PPB (converted)
[26] = Clearance in mouse at 1 mg, iv administered as single dose measured after 0.083 to 24 hrs by LC-MS analysis; format: ADME, organism-based; conditions: in vivo
MDA-MB-231 [27] = test: Antitumor activity against human MDA-MB-231 cells xenografted in athymic nude ((NCr) nu/nu mouse assessed as inhibition of tumor growth at 1 mg/kg, iv treated once weekly for 2 weeks relative to control; format: functional; conditions: MDA-MB-231, iv, 336 h
MDA-MB-231 [28] = test: Antiproliferative activity against human MDA-MB-231 cells assessed as reduction in cell proliferation incubated for 72 hrs by CellTiter-Glo reagent based assay; format: functional; conditions: MDA-MB-231, 72 h
[29] = Half life in monkey at 1 mg, iv administered as single dose measured after 0.083 to 24 hrs by LC-MS analysis; format: ADME, organism-based, Macaca mulatta; conditions: rhesus monkey, in vivo
[30] = Clearance in monkey at 1 mg, iv administered as single dose measured after 0.083 to 24 hrs by LC-MS analysis; format: ADME, organism-based, Macaca mulatta; conditions: rhesus monkey, in vivo
[31] = Half life in mouse at 1 mg, iv administered as single dose measured after 0.083 to 24 hrs by LC-MS analysis; format: ADME, organism-based; conditions: in vivo
[32] = Efflux ratio in human Caco2 cells at 10 uM by LC/MS/MS analysis; conditions: Caco-2, Ratio
HAP1 [33] = test: Inhibition of eIF4A1 F163L mutant in human HAP1 cells assessed as reduction in Cyclin D1 protein expression at 5 to 50 nM incubated for 24 hrs by Western blot analysis; format: cell-based
MDA-MB-231 [34] = test: Induction of apoptosis in human MDA-MB-231 cells assessed as increase in dead cells level incubated for 24 hrs by annexin V and propidium iodide staining based flow cyclometry; format: functional, cell-based
[35] = target: T1, Eukaryotic initiation factor 4A-I; test: Binding affinity to full length recombinant eIF4A1 (unknown origin) assessed as induction ternary complex formation in presence of AGAGAG by measuring half life for AGAGAG + ATP complex formation SPR assay
Homo sapiens = species on record: Homo sapiens; test: Inhibition of L-type calcium channel diltiazem binding site (unknown origin) at 10 uM relative to control
[36] = target: T1, Eukaryotic initiation factor 4A-I; test: Binding affinity to full length recombinant eIF4A1 (unknown origin) assessed as induction ternary complex formation in presence of AGAGAG by measuring half life for AGAGAG + AMP-PNP complex formation SPR assay
[37] = target: T1, Eukaryotic initiation factor 4A-I; test: Inhibition of eIF4A1 in human MDA-MB-231 cells assessed as reduction in cyclin D1 protein expression at 10 to 100 nM incubated for 24 hrs by Western blot analysis; format: cell-based
MDA-MB-231 [38] = test: Induction of cell cycle arrest in human MDA-MB-231 cells assessed as increase in G2/M population incubated for 24 hrs by LIVE/DEAD fixable dead cell staining based flow cyclometry; format: functional
[39] = target: T1, Eukaryotic initiation factor 4A-I; test: Inhibition of eIF4A1 in human MDA-MB-231 cells assessed as reduction in BCL2 protein expression at 10 to 100 nM incubated for 24 hrs by Western blot analysis; format: cell-based
[40] = target: T1, Eukaryotic initiation factor 4A-I; test: Inhibition of eIF4A1 in human HAP1 cells assessed as reduction in Cyclin D1 protein expression at 5 to 50 nM incubated for 24 hrs by Western blot analysis; format: cell-based
HAP1 [41] = test: Inhibition of eIF4A1 F163L mutant in human HAP1 cells assessed as reduction in c-MYC protein expression at 5 to 50 nM incubated for 24 hrs by Western blot analysis; format: cell-based
HAP1 [42] = test: Inhibition of eIF4A1 F163L mutant in human HAP1 cells assessed as reduction in MCL-1 protein expression at 5 to 50 nM incubated for 24 hrs by Western blot analysis; format: cell-based
[43] = target: T1, Eukaryotic initiation factor 4A-I; test: Binding affinity to full length recombinant eIF4A1 (unknown origin) assessed as induction ternary complex formation in presence of DNA oligo sequences by measuring Kd for DNA oligo sequences + ATP complex formation SPR assay
[44] = target: T1, Eukaryotic initiation factor 4A-I; test: Inhibition of eIF4A1 in human HAP1 cells assessed as reduction in c-MYC protein expression at 5 to 50 nM incubated for 24 hrs by Western blot analysis; format: cell-based
[45] = target: T1, Eukaryotic initiation factor 4A-I; test: Inhibition of eIF4A1 in human HAP1 cells assessed as reduction in MCL-1 protein expression at 5 to 50 nM incubated for 24 hrs by Western blot analysis; format: cell-based
MDA-MB-231 [46] = test: Induction of apoptosis in human MDA-MB-231 cells assessed as increase in apoptotic cells level incubated for 24 hrs by annexin V and propidium iodide staining based flow cyclometry; format: functional, cell-based

T1 sequence (P60842 whole entry): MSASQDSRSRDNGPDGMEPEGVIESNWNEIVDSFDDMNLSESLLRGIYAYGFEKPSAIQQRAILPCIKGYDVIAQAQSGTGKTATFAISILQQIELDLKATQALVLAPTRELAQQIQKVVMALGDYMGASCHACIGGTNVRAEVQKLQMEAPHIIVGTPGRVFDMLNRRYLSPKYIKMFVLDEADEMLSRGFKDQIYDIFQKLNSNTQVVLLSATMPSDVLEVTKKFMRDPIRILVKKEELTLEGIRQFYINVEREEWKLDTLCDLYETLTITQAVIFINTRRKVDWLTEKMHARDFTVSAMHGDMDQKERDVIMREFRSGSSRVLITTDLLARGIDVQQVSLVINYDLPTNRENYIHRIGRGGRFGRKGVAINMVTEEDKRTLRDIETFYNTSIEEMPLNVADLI
Sequence of Voltage-gated inwardly rectifying potassium channel KCNH2 (Q12809 whole entry): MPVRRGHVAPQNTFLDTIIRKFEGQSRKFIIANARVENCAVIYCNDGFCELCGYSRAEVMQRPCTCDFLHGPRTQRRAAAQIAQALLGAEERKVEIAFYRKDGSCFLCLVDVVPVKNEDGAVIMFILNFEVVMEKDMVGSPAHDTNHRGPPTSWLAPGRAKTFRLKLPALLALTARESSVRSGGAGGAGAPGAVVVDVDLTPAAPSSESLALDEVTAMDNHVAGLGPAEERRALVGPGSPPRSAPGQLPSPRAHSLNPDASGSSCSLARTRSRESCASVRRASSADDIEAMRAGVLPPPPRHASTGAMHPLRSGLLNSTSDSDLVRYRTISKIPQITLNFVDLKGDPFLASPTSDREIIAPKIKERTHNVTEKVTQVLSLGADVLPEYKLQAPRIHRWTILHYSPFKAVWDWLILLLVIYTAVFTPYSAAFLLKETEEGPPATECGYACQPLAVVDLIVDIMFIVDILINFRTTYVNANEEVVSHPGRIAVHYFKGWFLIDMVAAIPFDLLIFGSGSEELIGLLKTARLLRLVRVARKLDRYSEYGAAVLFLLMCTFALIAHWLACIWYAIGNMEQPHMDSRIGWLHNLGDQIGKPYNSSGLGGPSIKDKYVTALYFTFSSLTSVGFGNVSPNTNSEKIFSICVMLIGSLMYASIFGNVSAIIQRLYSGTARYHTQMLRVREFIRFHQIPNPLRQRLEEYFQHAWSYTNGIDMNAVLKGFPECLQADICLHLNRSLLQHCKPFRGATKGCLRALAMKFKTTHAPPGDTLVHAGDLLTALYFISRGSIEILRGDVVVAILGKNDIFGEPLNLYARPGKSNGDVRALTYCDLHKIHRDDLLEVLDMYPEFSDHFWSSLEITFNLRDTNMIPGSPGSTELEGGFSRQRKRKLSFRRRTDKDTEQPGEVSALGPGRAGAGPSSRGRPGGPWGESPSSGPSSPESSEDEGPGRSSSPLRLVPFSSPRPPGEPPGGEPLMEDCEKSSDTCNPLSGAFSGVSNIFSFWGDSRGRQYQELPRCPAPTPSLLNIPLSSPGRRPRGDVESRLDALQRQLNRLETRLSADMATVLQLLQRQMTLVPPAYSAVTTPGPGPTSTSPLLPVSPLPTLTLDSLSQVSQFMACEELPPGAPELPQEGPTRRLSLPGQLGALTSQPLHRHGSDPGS

COc1cc2c(c(OC)n1)[C@]1(O)[C@H](O)[C@H](CN(C)C)[C@@H](c3ccccc3)[C@]1(c1ccc(C#N)cc1)O2 [ZOTATIFIN]
Vd [1]: 13 L/kg
clearance [2]: 2.88 L/h/kg
half-life [3]: 4.39 h
IC50 [4]: 0.0138 µM
IC50 [5]: 0.092 µM
Papp A→B at 10 µM ([6]; Caco-2): 25 nm/s
AUC [7]: 0.39 µg·h/mL
Activity [8]: Non-Toxic
fraction unbound [9]: 0.365
IC50 [10]: 0.371 µM
IC50 [11]: > 10 µM
IC50 [12]: 0.0015 µM
IC50 [13]: 0.218 µM
Vd [14]: 17.8 L/kg
fraction unbound [15]: 0.332
Vd [16]: 12.1 L/kg
fraction unbound [17]: 0.188
clearance [18]: 2.9 L/h/kg
Activity (MDA-MB-231 [19]): Non-Toxic
Vd [20]: 12.2 L/kg
Vd [21]: 13 L/kg
fraction unbound [22]: 0.252
clearance [23]: < 0.744 L/h/kg
half-life [24]: 4.4 h
fraction unbound [25]: 0.266
clearance [26]: 0.948 L/h/kg
inhibition in vivo at 1 mg/kg (MDA-MB-231 [27]): 122%
IC50 (MDA-MB-231 [28]): 0.0106 µM
half-life [29]: 14.9 h
clearance [30]: 0.702 L/h/kg
half-life [31]: 10.9 h

COc1cncc2c1[C@]1(O)[C@H](O)[C@H](CN(C)C)[C@@H](c3ccccc3)[C@]1(c1ccc(C#N)cc1)O2 (stereo in doubt; (-)-37)
clearance [2]: 2.34 L/h/kg
Papp A→B at 10 µM ([6]; Caco-2, Papp): 2.1 nm/s
AUC [7]: 0.44 µg·h/mL
IC50 [11]: > 10 µM
Vd [21]: 5.2 L/kg
half-life [24]: 2.9 h
efflux ratio at 10 µM [32]: 22
IC50 (MDA-MB-231 [28]): 0.054 µM

COc1cc2c(c(OC)n1)[C@]1(O)[C@H](O)[C@H](CN(C)C)[C@@H](c3ccccc3)[C@]1(c1ccc(C#N)cc1)O2
inhibition (HAP1 [33]): inactive
inhibition [4]: Dose-dependent effect
Activity (MDA-MB-231 [34]): Dose-dependent effect
inhibition [5]: Dose-dependent effect
T1/2 [35]: 1.32 min
inhibition (Homo sapiens): 54%
T1/2 [36]: 0.642 h
inhibition [37]: Active
Activity (MDA-MB-231 [38]): Dose-dependent effect
inhibition [12]: Dose-dependent effect
inhibition [39]: Active
inhibition [13]: Dose-dependent effect
inhibition [40]: Dose-dependent effect
inhibition (HAP1 [41]): inactive
inhibition (HAP1 [42]): inactive
Activity [43]: inactive
inhibition [44]: Dose-dependent effect
inhibition [45]: Dose-dependent effect
Activity (MDA-MB-231 [46]): Dose-dependent effect
